Test results from US5001121A, “Cephalosporin compounds and pharmaceutical compositions thereof” (Mochida Pharmaceutical Co., Ltd., priority 1985, dated 1991).
Converted amounts (≈) assume the structure as drawn. Read-outs that look alike come from different tables or passages of the source.

Key:
Escherichia coli 111 = experiment: Protection ability against systemic infection; assay type: in vivo, ICR mice; settings: Escherichia coli, 111, in Mus musculus, iv, 168 h, i.p. infection, i.v. compound 1 hour later, survival at 1 week
Description: (§1) Protection ability against systemic infection was determined as follows. An aqueous suspension of test bacteria was intraperitoneally injected into 10 four week old ICR mice. One hour after the infection, test compounds were intravenously administered. The number of surviving mice was counted 1 week after injection to determine the dose at which 50% of the test animals were alive (ED50 :mg/kg).

[1] = system: Pseudomonas aeruginosa IFO3445; experiment: Protection ability against systemic infection; assay type: in vivo, ICR mice; settings: iv, 168 h, i.p. infection, i.v. compound 1 hour later, survival at 1 week
Description: as §1

Serratia marcescens 274 = experiment: Protection ability against systemic infection; assay type: in vivo, ICR mice; settings: iv, 168 h, i.p. infection, i.v. compound 1 hour later, survival at 1 week
Description: as §1

[2] = system: Staphylococcus aureus 242 (methicillin-resistant strain); experiment: Protection ability against systemic infection; assay type: in vivo, ICR mice; settings: in Mus musculus, iv, 168 h, i.p. infection, i.v. compound 1 hour later, survival at 1 week
Description: as §1

Escherichia coli 67 = experiment: Antibacterial activity in vitro, agar plate dilution method (MIC); assay type: cell-based; settings: Mueller Hinton agar, 10^6 cells/ml, 37° C., 20 hours
Description: (§2) Antibacterial activity in vitro was determined in accordance with the agar plate dilution method. A platinum loop each of test bacteria (10^6 cells/ml), cultured in Mueller Hinton broth, was inoculated on Mueller Hinton agar plates which contained test compounds at various concentrations. After cultivating at 37° C. for 20 hours, the minimum inhibitory concentration (MIC μg/ml) was determined.

[3] = system: Klebsiella pneumoniae IFO3317; experiment: as above; assay type: cell-based; settings: Mueller Hinton agar, 10^6 cells/ml, 37° C., 20 hours
Description: as §2

[4] = system: Pseudomonas aeruginosa IFO3445; experiment: as above; assay type: cell-based; settings: Mueller Hinton agar, 10^6 cells/ml, 37° C., 20 hours
Description: as §2

[5] = system: Serratia marcescens IFO3759; experiment: as above; assay type: cell-based; settings: Mueller Hinton agar, 10^6 cells/ml, 37° C., 20 hours
Description: as §2

[6] = system: Bacteroides fragilis 5524; experiment: as above; assay type: cell-based; settings: Mueller Hinton agar, 10^6 cells/ml, 37° C., 20 hours
Description: as §2

[7] = system: Staphylococcus aureus Smith; experiment: as above; assay type: cell-based; settings: Mueller Hinton agar, 10^6 cells/ml, 37° C., 20 hours
Description: as §2

LD50, Probit method = settings: in vivo, iv
Description: Next, LD50 of representative examples of the compounds of the present invention is shown in Table 3 wherein LD50 was determined in accordance with the Probit method.

[8] = Serratia marcescens, 274, in Mus musculus, Table 2-a
[9] = in Mus musculus, Table 2-a, read-out: ED50
[10] = in Mus musculus, Table 2-b, read-out: ED50

Row | SMILES | ED50 (Escherichia coli 111; Table 2-a, read-out: ED50) | ED50 (Serratia marcescens 274; [8]) | MIC (Escherichia coli 67) | MIC [3] | MIC [4] | MIC [5] | ED50 [1, 9] | ED50 ([2]; Table 2-a, read-out: ED50) | MIC [7] | LD50 (LD50, Probit method) | also measured
1 | CC(C)(O/N=C(\C(=O)N[C@@H]1C(=O)N2C(C(=O)[O-])=C(C[n+]3ccccc3)CS[C@H]12)c1csc(N)n1)C(=O)O [CAZ, Ceftazidime, reference compound] | 6.55 mg/kg | 4.23 mg/kg |  |  |  |  |  |  |  |  | ED50 (Escherichia coli 111; Table 2-b): 3.91 mg/kg; ED50 ([1]; Pseudomonas aeruginosa, IFO3445, in Mus musculus, Table 2-a): 229 mg/kg; ED50 ([1]; Pseudomonas aeruginosa, IFO3445, in Mus musculus, Table 2-b): 230 mg/kg; ED50 (Serratia marcescens 274; Serratia marcescens, 274, in Mus musculus, Table 2-b): 6.41 mg/kg; ED50 ([2]; Table 2-a): > 100 mg/kg; ED50 ([2]; Table 2-b): > 2100 mg/kg
2 | Cc1cc(SCC2=C(C(=O)O)N3C(=O)[C@@H](NC(=O)/C(=N\OC(=O)c4cc(O)c(O)cc4C)c4csc(N)n4)[C@H]3SC2)n2nc(C(=O)O)nc2n1 [Compound 3] |  | 1.73 mg/kg | < 0.05 µg/mL | < 0.05 µg/mL | 0.2 µg/mL (≈ 0.27 µM) | < 0.05 µg/mL | 407 mg/kg | 1.79 mg/kg |  |  | 
3 | Cc1cc(SCC2=C(C(=O)O)N3C(=O)[C@@H](NC(=O)/C(=N\O[C@H](C(=O)O)c4ccc(O)c(O)c4)c4csc(N)n4)[C@H]3SC2)n2nc(C(=O)O)nc2n1 [Compound 9, (6R,7R)-7-[2-(2-amino-4-thiazolyl)-2-[Z-[(S)-carboxy(3,4-dihydroxyphenyl)-methyl]oxyimino]acetamido]-3-[(2-carboxy-5-methyl-s-triazolo [1,5-a]pyrimidin-7-yl)thiomethyl]-8-oxo-5-thia-1-azabicyclo[4.2.0]oct-2-ene-2-carboxylic acid] |  |  | 0.1 µg/mL (≈ 0.132 µM) | < 0.05 µg/mL | 1.56 µg/mL (≈ 2.06 µM) | 0.05 µg/mL (≈ 0.066 µM) |  |  | 0.78 µg/mL (≈ 1.03 µM) | > 1000 mg/kg | MIC [6]: 6.25 µg/mL (≈ 8.25 µM); ED50 (Escherichia coli 111; Table 2-b, read-out: ED50): 1.73 mg/kg; ED50 [1, 10]: 95 mg/kg; ED50 (Serratia marcescens 274; [10]): 0.47 mg/kg; ED50 ([2]; Table 2-b, read-out: ED50): 3.34 mg/kg
4 | CC(=O)Oc1cc(C)c(C(=O)O/N=C(\C(=O)N[C@@H]2C(=O)N3C(C(=O)O)=C(CSc4cc(C)nc5nc(C(=O)O)nn45)CS[C@H]23)c2csc(N)n2)cc1OC(C)=O [Compound 2, (6R,7R)-7-[2-(2-amino-4-thiazolyl)-2-[Z-(4,5-diacetoxy-2-methylbenzoyl)oxyimino]acetamido]-3-[(2-carboxy-5-methyl-s-triazolo [1,5-a]pyrimidin-7-yl)thiomethyl]-8-oxo-5-thia-1-azabicyclo[4.2.0]oct-2-ene-2-carboxylic acid] | 2.28 mg/kg |  | < 0.05 µg/mL | < 0.05 µg/mL | 0.2 µg/mL (≈ 0.242 µM) | < 0.05 µg/mL | 212 mg/kg | 7.9 mg/kg | 0.78 µg/mL (≈ 0.945 µM) | > 1000 mg/kg | ED50 (Serratia marcescens 274; [9]): 3.08 mg/kg
